{"source": "patent US4431804A", "about": "“Thiazolylacetamido compounds” (Hoffmann-La Roche Inc., priority 1981, dated 1984)", "key": {"Pseudomonas aeruginosa": {"system": "Pseudomonas aeruginosa", "experiment": "in vitro activity against 15 strains of Pseudomonas aeruginosa (minimum inhibitory concentration)", "type": "cell-based", "text": "Results (as MIC=minimum inhibitory concentration in μg/ml): […]"}, "Toxicity (LD50)": {"experiment": "Toxicity (LD50)", "conditions": "in vivo", "text": "Toxicity of the trisodium salt of (6R,7R)-7-[(Z)-2-(2-amino-4-[…])-2-[(1-carboxy-1-methylethoxy)imino]acetamido]-3-[[(2,5-dihydro-6-hydroxy-2-methyl-5-oxo-as-triazin-3-yl)thio]methyl]-8-oxo-5-thia-1-azabicyclo[4.2.0]oct-2-ene-2-carboxylic acid: […]"}}, "note": "Structures can show the parent of a compound that is named as a salt.", "data": [{"compound": "Cn1nc(O)c(=O)nc1SCC1=C(C(=O)O)N2C(=O)[C@@H](NC(=O)/C(=N\\OC(C)(C)C(=O)O)c3csc(N)n3)[C@H]2SC1", "note": "[Example 1, trisodium salt of (6R,7R)-7-[(Z)-2-(2-amino-4-thiazolyl)-2-[(1-carboxy-1-methylethoxy)imino]acetamido]-3-[[(2,5-dihydro-6-hydroxy-2-methyl-5-oxo-as-triazin-3-yl)thio]methyl]-8-oxo-5-thia-1-azabicyclo[4.2.0]oct-2-ene-2-carboxylic acid]", "values": [{"measurement": "MIC", "setting": "Pseudomonas aeruginosa; P. aeruginosa strain 1, in vitro", "result": 6.3, "unit": "µg/mL"}, {"measurement": "MIC", "setting": "Pseudomonas aeruginosa; P. aeruginosa strain 2, in vitro", "result": 1.6, "unit": "µg/mL"}, {"measurement": "MIC", "setting": "Pseudomonas aeruginosa; P. aeruginosa strain 3, in vitro", "result": 1.6, "unit": "µg/mL"}, {"measurement": "MIC", "setting": "Pseudomonas aeruginosa; P. aeruginosa strain 4, in vitro", "result": 1.6, "unit": "µg/mL"}, {"measurement": "MIC", "setting": "Pseudomonas aeruginosa; P. aeruginosa strain 5, in vitro", "result": 1.6, "unit": "µg/mL"}, {"measurement": "MIC", "setting": "Pseudomonas aeruginosa; P. aeruginosa strain 6, in vitro", "result": 1.6, "unit": "µg/mL"}, {"measurement": "MIC", "setting": "Pseudomonas aeruginosa; P. aeruginosa strain 7, in vitro", "result": 1.6, "unit": "µg/mL"}, {"measurement": "MIC", "setting": "Pseudomonas aeruginosa; P. aeruginosa strain 8, in vitro", "result": 25, "unit": "µg/mL"}, {"measurement": "MIC", "setting": "Pseudomonas aeruginosa; P. aeruginosa strain 9, in vitro", "result": 3.1, "unit": "µg/mL"}, {"measurement": "MIC", "setting": "Pseudomonas aeruginosa; P. aeruginosa strain 10, in vitro", "result": 1.6, "unit": "µg/mL"}, {"measurement": "MIC", "setting": "Pseudomonas aeruginosa; P. aeruginosa strain 11, in vitro", "result": 0.8, "unit": "µg/mL"}, {"measurement": "MIC", "setting": "Pseudomonas aeruginosa; P. aeruginosa strain 12, in vitro", "result": 1.6, "unit": "µg/mL"}, {"measurement": "MIC", "setting": "Pseudomonas aeruginosa; P. aeruginosa strain 13, in vitro", "result": 1.6, "unit": "µg/mL"}, {"measurement": "MIC", "setting": "Pseudomonas aeruginosa; P. aeruginosa strain 14, in vitro", "result": 1.6, "unit": "µg/mL"}, {"measurement": "MIC", "setting": "Pseudomonas aeruginosa; P. aeruginosa strain 15, in vitro", "result": 1.6, "unit": "µg/mL"}, {"measurement": "LD50", "setting": "Toxicity (LD50); iv", "result": "> 1000", "unit": "mg/kg"}, {"measurement": "LD50", "setting": "Toxicity (LD50); po", "result": "> 4000", "unit": "mg/kg"}, {"measurement": "LD50", "setting": "Toxicity (LD50); sc", "result": "> 4000", "unit": "mg/kg"}]}]}
